Experimental data from US20220324815A1, “2-PHENOXY-PYRIMIDINE DERIVATIVES AS HERBICIDAL COMPOUNDS” (SYNGENTA CROP PROTECTION AG, priority 2019, published 2022).

How the values were obtained:
Format in all cases: in vivo
Settings in all cases: 250 g/ha unless otherwise stated, evaluated after 13 days, five-point scale
[1] = test system: Ipomoea hederacea (IPOHE); assay: Test 1 glasshouse herbicide test, post-emergence application (Table B1)
Description: (§1) Seeds of a variety of test species are sown in standard soil in pots (Lolium perenne (LOLPE), Solanum nigrum (SOLNI), Amaranthus retoflexus (AMARE), Setaria faberi (SETFA), Echinochloa crus-galli (ECHCG) and Ipomoea hederacea (IPOHE)). After cultivation for one day (pre-emergence) or after 8 days cultivation (post-emergence) under controlled conditions in a glasshouse (at 24/16° C., day/night; 14 hours light; 65% humidity), the plants are sprayed with an aqueous spray solution derived from the formulation of the technical active ingredient in acetone/water (50:50) solution containing 0.5% Tween 20 (polyoxyethelyene sorbitan monolaurate, CAS RN 9005-64-5). Compounds are applied at 250 g/ha unless otherwise stated. The test plants are then grown in a glasshouse under controlled conditions in a glasshouse (at 24/16° C., day/night; 14 hours light; 65% humidity) and watered twice daily. After 13 days for pre and post-emergence, the test is evaluated for the percentage damage caused to the plant. The biological activities (% phytotoxicity) are shown in Tables B1 and B2 below using a five-point scale (5=81 to 100%; 4=61 to 80%; 3=41 to 60%; 2=21 to 40%; 1=0 to 20%).

[2] = test system: Echinochloa crus-galli (ECHCG); assay: as above
Description: as §1

Setaria faberi (SETFA) [3] = assay: as above
Description: as §1

[4] = test system: Amaranthus retoflexus (AMARE); assay: as above
Description: as §1

[5] = test system: Ipomoea hederacea (IPOHE); assay: Test 1 glasshouse herbicide test, pre-emergence application (Table B2)
Description: as §1

[6] = test system: Echinochloa crus-galli (ECHCG); assay: as above
Description: as §1

Setaria faberi (SETFA) [7] = assay: as above
Description: as §1

[8] = test system: Amaranthus retoflexus (AMARE); assay: as above
Description: as §1

SMILES | % phytotoxicity IPOHE, post-emergence application [1] | % phytotoxicity ECHCG, post-emergence application [2] | % phytotoxicity SETFA, post-emergence application (Setaria faberi (SETFA) [3]) | % phytotoxicity AMARE, post-emergence application [4] | % phytotoxicity IPOHE, pre-emergence application [5] | % phytotoxicity ECHCG, pre-emergence application [6] | % phytotoxicity SETFA, pre-emergence application (Setaria faberi (SETFA) [7]) | % phytotoxicity AMARE, pre-emergence application [8]
FC(F)=C(F)CCSc1ccccc1Oc1ncc(Cl)cn1 [Compound A68] | 5 (5=81 to 100%) | 5 (5=81 to 100%) | 4 (4=61 to 80%) | 5 (5=81 to 100%) | 4 (4=61 to 80%) | 5 (5=81 to 100%) | 5 (5=81 to 100%) | 5 (5=81 to 100%)
CC(C)CCSc1ccccc1Oc1ncc(Cl)cn1 [Compound A70] | 4 (4=61 to 80%) | 5 (5=81 to 100%) | 4 (4=61 to 80%) | 2 (2=21 to 40%) | 1 (1=0 to 20%) | 5 (5=81 to 100%) | 5 (5=81 to 100%) | 2 (2=21 to 40%)
C=CCCSc1ccccc1Oc1ncc(Cl)cn1 [Compound A71] | 4 (4=61 to 80%) | 4 (4=61 to 80%) | 3 (3=41 to 60%) | 5 (5=81 to 100%) | 1 (1=0 to 20%) | 5 (5=81 to 100%) | 5 (5=81 to 100%) | 5 (5=81 to 100%)
CC(C)CSc1ccccc1Oc1ncc(Cl)cn1 [Compound A72] | 2 (2=21 to 40%) | 3 (3=41 to 60%) | 2 (2=21 to 40%) | 3 (3=41 to 60%) | 1 (1=0 to 20%) | 4 (4=61 to 80%) | 4 (4=61 to 80%) | 4 (4=61 to 80%)
O=S(=O)(CCC(F)=C(F)F)c1ccccc1Oc1ncc(Cl)cn1 [Compound A73] | 1 (1=0 to 20%) | 3 (3=41 to 60%) | 3 (3=41 to 60%) | 4 (4=61 to 80%) | 1 (1=0 to 20%) | 5 (5=81 to 100%) | 4 (4=61 to 80%) | 5 (5=81 to 100%)
CC(C)CCS(=O)(=O)c1ccccc1Oc1ncc(Cl)cn1 [Compound A75] | 2 (2=21 to 40%) | 3 (3=41 to 60%) | 2 (2=21 to 40%) | 2 (2=21 to 40%) | 1 (1=0 to 20%) | 4 (4=61 to 80%) | 4 (4=61 to 80%) | 5 (5=81 to 100%)
CC(C)CS(=O)(=O)c1ccccc1Oc1ncc(Cl)cn1 [Compound A76] | 2 (2=21 to 40%) | 2 (2=21 to 40%) | 1 (1=0 to 20%) | 1 (1=0 to 20%) | 2 (2=21 to 40%) | 3 (3=41 to 60%) | 4 (4=61 to 80%) | 5 (5=81 to 100%)
CCCCCCS(=O)(=O)c1ccccc1Oc1ncc(Cl)cn1 [Compound A77] | 1 (1=0 to 20%) | 1 (1=0 to 20%) | 1 (1=0 to 20%) | 2 (2=21 to 40%) | 1 (1=0 to 20%) | 3 (3=41 to 60%) | 1 (1=0 to 20%) | 4 (4=61 to 80%)
O=S(=O)(CCCF)c1ccccc1Oc1ncc(Cl)cn1 [Compound A82] | 3 (3=41 to 60%) | 1 (1=0 to 20%) | 1 (1=0 to 20%) | 3 (3=41 to 60%) | 1 (1=0 to 20%) | 3 (3=41 to 60%) | 3 (3=41 to 60%) | 5 (5=81 to 100%)
CCC(CC)CS(=O)(=O)c1ccccc1Oc1ncc(Cl)cn1 [Compound A87] | 1 (1=0 to 20%) | 1 (1=0 to 20%) | 1 (1=0 to 20%) | 1 (1=0 to 20%) | 1 (1=0 to 20%) | 1 (1=0 to 20%) | 1 (1=0 to 20%) | 1 (1=0 to 20%)
CCC(C)S(=O)(=O)c1ccccc1Oc1ncc(Cl)cn1 (stereo not shown) [Compound A88] | 1 (1=0 to 20%) | 1 (1=0 to 20%) | 1 (1=0 to 20%) | 2 (2=21 to 40%) | 2 (2=21 to 40%) | 1 (1=0 to 20%) | 5 (5=81 to 100%) | 5 (5=81 to 100%)
O=S(=O)(Cc1cccc(Cl)c1)c1ccccc1Oc1ncc(Cl)cn1 [Compound A89] | 1 (1=0 to 20%) | 1 (1=0 to 20%) | 1 (1=0 to 20%) | 3 (3=41 to 60%) | 1 (1=0 to 20%) | 1 (1=0 to 20%) | 1 (1=0 to 20%) | 1 (1=0 to 20%)
N#Cc1cccc(Oc2ncc(Cl)cn2)c1S(=O)(=O)CCCCC(F)(F)F [Compound A91] | 4 (4=61 to 80%) | 5 (5=81 to 100%) | 4 (4=61 to 80%) | 5 (5=81 to 100%) | 5 (5=81 to 100%) | 5 (5=81 to 100%) | 5 (5=81 to 100%) | 5 (5=81 to 100%)
N#Cc1cccc(Oc2ncc(Cl)cn2)c1S(=O)(=O)CCCCCC(F)(F)F [Compound A92] | 2 (2=21 to 40%) | 3 (3=41 to 60%) | 2 (2=21 to 40%) | 5 (5=81 to 100%) | 1 (1=0 to 20%) | 4 (4=61 to 80%) | 4 (4=61 to 80%) | 5 (5=81 to 100%)
FC(F)CCSc1c(Cl)cccc1Oc1ncc(Cl)cn1 [Compound A94] | 3 (3=41 to 60%) | 5 (5=81 to 100%) | 5 (5=81 to 100%) | 5 (5=81 to 100%) | 3 (3=41 to 60%) | 5 (5=81 to 100%) | 5 (5=81 to 100%) | 5 (5=81 to 100%)
[O-][S+](CCC(F)F)c1c(Cl)cccc1Oc1ncc(Cl)cn1 (stereo not shown) [Compound A95] | 4 (4=61 to 80%) | 2 (2=21 to 40%) | 1 (1=0 to 20%) | 4 (4=61 to 80%) | 5 (5=81 to 100%) | 5 (5=81 to 100%) | 5 (5=81 to 100%) | 5 (5=81 to 100%)
O=S(=O)(CCC(F)F)c1c(Cl)cccc1Oc1ncc(Cl)cn1 [Compound A96] | 5 (5=81 to 100%) | 5 (5=81 to 100%) | 5 (5=81 to 100%) | 5 (5=81 to 100%) | 5 (5=81 to 100%) | 5 (5=81 to 100%) | 5 (5=81 to 100%) | 5 (5=81 to 100%)
